For one assay, the target named is T1, human orexin-1 receptor (Homo sapiens, UniProt O43613).
T1 construct: expressed in transfected cells; host or cells: CHO (Chinese hamster ovary) cells, kept under G418 selection
T1 sequence (O43613 1-425): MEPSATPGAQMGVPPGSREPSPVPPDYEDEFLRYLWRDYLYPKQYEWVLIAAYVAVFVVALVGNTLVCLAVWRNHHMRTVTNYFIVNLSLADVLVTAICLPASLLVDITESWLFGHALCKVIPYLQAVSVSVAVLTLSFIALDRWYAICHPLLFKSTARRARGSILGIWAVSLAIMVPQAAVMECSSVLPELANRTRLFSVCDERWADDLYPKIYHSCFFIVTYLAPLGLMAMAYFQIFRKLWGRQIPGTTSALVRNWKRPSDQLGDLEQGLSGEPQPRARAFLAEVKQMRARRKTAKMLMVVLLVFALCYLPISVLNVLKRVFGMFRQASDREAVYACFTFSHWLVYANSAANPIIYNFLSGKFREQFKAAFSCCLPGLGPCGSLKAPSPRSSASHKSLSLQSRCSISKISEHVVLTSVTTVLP
The assay can be described thus: Intracellular calcium measurement (FLIPR Tetra), orexin receptor antagonistic activity, OX1. The assay is classed as cell-based. As to conditions: CHO cells expressing human orexin-1 receptor, 3 nM orexin-A. How it is done: (§1) The orexin receptor antagonistic activity of the compounds of formula (I) is determined in accordance with one of the following experimental methods.
(§2) Chinese hamster ovary (CHO) cells expressing the human orexin-1 receptor and the human orexin-2 receptor, respectively, are grown in culture medium (Ham F-12 with L-Glutamine) containing 300 μg/ml G418, 100 U/ml penicillin, 100 μg/ml streptomycin and 10% heat inactivated fetal calf serum (FCS). The cells are seeded at 20,000 cells/well into 384-well black clear bottom sterile plates (Greiner). The seeded plates are incubated overnight at 37° C. in 5% CO2.
(§3) Human orexin-A as an agonist is prepared as 1 mM stock solution in MeOH:water (1:1), diluted in HBSS containing 0.1% bovine serum albumin (BSA), NaHCO3: 0.375 g/l and 20 mM HEPES for use in the assay at a final concentration of 3 nM. Antagonists are prepared as 10 mM stock solution in DMSO, then diluted in 384-well plates, first in DMSO, then in HBSS containing 0.1% bovine serum albumin (BSA), NaHCO3: 0.375 g/l and 20 mM HEPES.
(§4) On the day of the assay, 50 μl of staining buffer (HBSS containing 1% FCS, 20 mM HEPES, NaHCO3: 0.375 g/l, 5 mM probenecid (Sigma) and 3 μM of the fluorescent calcium indicator fluo-4 AM (1 mM stock solution in DMSO, containing 10% pluronic) is added to each well.
(§5) The 384-well cell-plates are incubated for 50 min at 37° C. in 5% CO2 followed by equilibration at RT for 30-120 min before measurement.
(§6) Within the Fluorescent Imaging Plate Reader (FLIPR Tetra, Molecular Devices), antagonists are added to the plate in a volume of 10 μl/well, incubated for 10 min and finally 10 μl/well of agonist is added. Fluorescence is measured for each well at 1 second intervals, and the height of each fluorescence peak is compared to the height of the fluorescence peak induced by 3 nM orexin-A with vehicle in place of antagonist. For each antagonist, the IC50 value (the concentration of compound needed to inhibit 50% of the agonistic response) is determined and may be normalized using the obtained IC50 value of a on-plate reference compound (normalized values in Table 1 are indicated by an asterisk *). With the FLIPR Tetra, two different conditions (conditions A and conditions B) were used, differing in adjustment of pipetting speed and cell splitting regime. The calculated IC50 values of the compounds may fluctuate depending on the daily cellular assay performance. Fluctuations of this kind are known to those skilled in the art.
On the technique in general: Calcium assays in cells follow changes in intracellular calcium, usually with a dye or a luminescent sensor.

The target in a further assay is T2, human orexin-2 receptor (Homo sapiens, UniProt O43614).
T2 construct: expressed in transfected cells; host or cells: CHO (Chinese hamster ovary) cells, kept under G418 selection
T2 sequence (O43614 1-444): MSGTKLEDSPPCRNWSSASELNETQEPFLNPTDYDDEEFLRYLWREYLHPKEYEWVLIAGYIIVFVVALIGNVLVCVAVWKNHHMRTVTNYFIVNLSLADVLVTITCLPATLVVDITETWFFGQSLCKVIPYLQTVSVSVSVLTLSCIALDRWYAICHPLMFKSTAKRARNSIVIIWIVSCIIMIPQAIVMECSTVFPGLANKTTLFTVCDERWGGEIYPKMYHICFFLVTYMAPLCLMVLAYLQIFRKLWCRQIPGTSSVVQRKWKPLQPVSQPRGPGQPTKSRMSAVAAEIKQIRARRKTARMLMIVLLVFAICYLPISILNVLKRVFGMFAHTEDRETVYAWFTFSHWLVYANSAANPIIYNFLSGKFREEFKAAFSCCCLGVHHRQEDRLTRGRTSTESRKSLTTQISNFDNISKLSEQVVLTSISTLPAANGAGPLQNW
The assay can be described thus: Intracellular calcium measurement (FLIPR Tetra), orexin receptor antagonistic activity, OX2. The following applies: CHO cells expressing human orexin-2 receptor, 3 nM orexin-A. Format: cell-based. How it is done: as §1, §2, §3, §4, §5, §6

The IC50 is the point on the concentration scale where inhibition reaches its midpoint.

`COc1ccc(C(O)CN(CC2CC2)C(=O)c2nccnc2-c2ccccc2)cc1OC` (stereo not shown) [Example 99, 3-Phenyl-pyrazine-2-carboxylic acid cyclopropylmethyl-[2-(3,4-dimethoxy-phenyl)-2-hydroxy-ethyl]-amide]: the IC50 on human orexin-1 receptor (conditions A) was greater than 10000 nM; on human orexin-2 receptor (conditions A), 41 nM.

Consider `COc1ccc(CCN(C)C(=O)c2nc(N)sc2-c2cccc(C)c2)cc1OC` [Example 104, 2-Amino-5-m-tolyl-thiazole-4-carboxylic acid [2-(3,4-dimethoxy-phenyl)-ethyl]-methyl-amide], for which the half-maximal inhibitory concentration (IC50) on human orexin-1 receptor (conditions B) was determined as 405 nM; at human orexin-2 receptor (conditions B), 5 nM.

Take `CCN(CCc1ccc(OC)c(OC)c1)C(=O)c1nc(N)sc1-c1cccc(C)c1` [Example 107, 2-Amino-5-m-tolyl-thiazole-4-carboxylic acid [2-(3,4-dimethoxy-phenyl)-ethyl]-ethyl-amide]: the IC50 amounted to 41 nM at human orexin-1 receptor (conditions B) and 2 nM on human orexin-2 receptor (conditions B).

With `CCN(CCc1ccc(OC)c(OC)c1)C(=O)c1nc(C)sc1-c1ccc(C)c(C)c1` [Example 108, 5-(3,4-Dimethyl-phenyl)-2-methyl-thiazole-4-carboxylic acid [2-(3,4-dimethoxy-phenyl)-ethyl]-ethyl-amide], the IC50 at human orexin-1 receptor (conditions B) turned out to be 36 nM; on human orexin-2 receptor (conditions B), 5 nM.

Regarding `CCCN(CCc1ccc(OC)c(OC)c1)C(=O)c1nc(C)sc1-c1cccc(F)c1` [Example 109, 5-(3-Fluoro-phenyl)-2-methyl-thiazole-4-carboxylic acid [2-(3,4-dimethoxy-phenyl)-ethyl]-propyl-amide], the figures for the concentration for half-maximal inhibition (IC50) at human orexin-1 receptor (conditions B) and on human orexin-2 receptor (conditions B) were 479 nM and 6 nM, respectively.

`CCCN(CCc1ccc(OC)c(OC)c1)C(=O)c1nc(N)sc1-c1cccc(C)c1` [Example 110, 2-Amino-5-m-tolyl-thiazole-4-carboxylic acid [2-(3,4-dimethoxy-phenyl)-ethyl]-propyl-amide]: the IC50 on human orexin-1 receptor (conditions B) amounted to 21 nM; at human orexin-2 receptor (conditions B), 2 nM.

Regarding `CCCN(CCc1ccc(OC)c(OC)c1)C(=O)c1nc(C)sc1-c1ccc(C)c(C)c1` [Example 111, 5-(3,4-Dimethyl-phenyl)-2-methyl-thiazole-4-carboxylic acid [2-(3,4-dimethoxy-phenyl)-ethyl]-propyl-amide], the figures for the IC50 at human orexin-1 receptor (conditions B) and at human orexin-2 receptor (conditions B) were 18 nM and 2 nM, respectively.

As for `COc1ccc(CCN(CC(C)C)C(=O)c2nc(N)sc2-c2cccc(C)c2)cc1OC` [Example 113, 2-Amino-5-m-tolyl-thiazole-4-carboxylic acid [2-(3,4-dimethoxy-phenyl)-ethyl]-isobutyl-amide], the IC50 at human orexin-1 receptor (conditions B) worked out at 328 nM; at human orexin-2 receptor (conditions B), 8 nM.

Consider `COc1ccc(CCN(CC(F)(F)F)C(=O)c2nc(N)sc2-c2cccc(C)c2)cc1OC` [Example 119, 2-Amino-5-m-tolyl-thiazole-4-carboxylic acid [2-(3,4-dimethoxy-phenyl)-ethyl]-(2,2,2-trifluoro-ethyl)-amide], for which the 50% inhibitory concentration (IC50) at human orexin-1 receptor (conditions B) stood at 149 nM; at human orexin-2 receptor (conditions B) it was 4 nM.

For `COc1ccc(CCN(CC(F)(F)F)C(=O)c2nc(C)sc2-c2ccc(C)c(C)c2)cc1OC` [Example 120, 5-(3,4-Dimethyl-phenyl)-2-methyl-thiazole-4-carboxylic acid [2-(3,4-dimethoxy-phenyl)-ethyl]-(2,2,2-trifluoro-ethyl)-amide], the IC50 was 119 nM at human orexin-1 receptor (conditions B) and 6 nM at human orexin-2 receptor (conditions B).

Take `COc1ccc(CCN(C(=O)c2nc(N)sc2-c2cccc(C)c2)C2CC2)cc1OC` [Example 122, 2-Amino-5-m-tolyl-thiazole-4-carboxylic acid cyclopropyl-[2-(3,4-dimethoxy-phenyl)-ethyl]-amide]: the figures for the concentration for half-maximal inhibition (IC50) at human orexin-1 receptor (conditions B) and on human orexin-2 receptor (conditions B) were 15 nM and 2 nM, respectively.

Take `COc1ccc(CCN(C(=O)c2nc(C)sc2-c2ccc(C)c(C)c2)C2CC2)cc1OC` [Example 123, 5-(3,4-Dimethyl-phenyl)-2-methyl-thiazole-4-carboxylic acid cyclopropyl-[2-(3,4-dimethoxy-phenyl)-ethyl]-amide]: the values for the concentration for half-maximal inhibition (IC50) on human orexin-1 receptor (conditions B) and at human orexin-2 receptor (conditions B) were 26 nM and 4 nM, respectively.

With `COc1ccc(CCN(CCO)C(=O)c2nc(C)sc2-c2cccc(F)c2)cc1OC` [Example 124, 5-(3-Fluoro-phenyl)-2-methyl-thiazole-4-carboxylic acid [2-(3,4-dimethoxy-phenyl)-ethyl]-(2-hydroxy-ethyl)-amide], the IC50 at human orexin-1 receptor (conditions B) came out at 1470 nM; at human orexin-2 receptor (conditions B) it was 82 nM.

Turning to `COc1ccc(CCN(CCO)C(=O)c2nc(C)sc2-c2ccc(C)c(C)c2)cc1OC` [Example 126, 5-(3,4-Dimethyl-phenyl)-2-methyl-thiazole-4-carboxylic acid [2-(3,4-dimethoxy-phenyl)-ethyl]-(2-hydroxy-ethyl)-amide], the IC50 on human orexin-1 receptor (conditions B) worked out at 170 nM; on human orexin-2 receptor (conditions B), 4 nM.

As to `COCCN(CCc1ccc(OC)c(OC)c1)C(=O)c1nc(C)sc1-c1cccc(F)c1` [Example 127, 5-(3-Fluoro-phenyl)-2-methyl-thiazole-4-carboxylic acid [2-(3,4-dimethoxy-phenyl)-ethyl]-(2-methoxy-ethyl)-amide], the IC50 came out at 1120 nM on human orexin-1 receptor (conditions B) and 16 nM at human orexin-2 receptor (conditions B).

`COCCN(CCc1ccc(OC)c(OC)c1)C(=O)c1nc(N)sc1-c1cccc(C)c1` [Example 128, 2-Amino-5-m-tolyl-thiazole-4-carboxylic acid [2-(3,4-dimethoxy-phenyl)-ethyl]-(2-methoxy-ethyl)-amide]: the IC50 was 71 nM at human orexin-1 receptor (conditions B) and 4 nM at human orexin-2 receptor (conditions B).

For `COCCN(CCc1ccc(OC)c(OC)c1)C(=O)c1nc(C)sc1-c1ccc(C)c(C)c1` [Example 129, 5-(3,4-Dimethyl-phenyl)-2-methyl-thiazole-4-carboxylic acid [2-(3,4-dimethoxy-phenyl)-ethyl]-(2-methoxy-ethyl)-amide], the half-inhibitory concentration (IC50) at human orexin-1 receptor (conditions B) came out at 40 nM; at human orexin-2 receptor (conditions B), 5 nM.

`COc1ccc(CCN(CCN(C)C)C(=O)c2nc(N)sc2-c2cccc(C)c2)cc1OC` [Example 130, 2-Amino-5-m-tolyl-thiazole-4-carboxylic acid [2-(3,4-dimethoxy-phenyl)-ethyl]-(2-dimethylamino-ethyl)-amide]: the IC50 was greater than 10000 nM at human orexin-1 receptor (conditions B) and 279 nM at human orexin-2 receptor (conditions B).

Take `COc1ccc(CCN(CC(N)=O)C(=O)c2nc(C)sc2-c2cccc(F)c2)cc1OC` [Example 131, 5-(3-Fluoro-phenyl)-2-methyl-thiazole-4-carboxylic acid carbamoylmethyl-[2-(3,4-dimethoxy-phenyl)-ethyl]-amide]: the 50% inhibitory concentration (IC50) is greater than 10000 nM on human orexin-1 receptor (conditions B) and 49 nM at human orexin-2 receptor (conditions B).

For the molecule `COc1ccc(CCN(CC(=O)N(C)C)C(=O)c2nc(N)sc2-c2cccc(C)c2)cc1OC` [Example 135, 2-Amino-5-m-tolyl-thiazole-4-carboxylic acid [2-(3,4-dimethoxy-phenyl)-ethyl]-dimethylcarbamoylmethyl-amide], the figures for the IC50 on human orexin-1 receptor (conditions B) and at human orexin-2 receptor (conditions B) were greater than 10000 nM and 145 nM, respectively.

Values taken from patent US20110212968A1, “PHENETHYLAMIDE DERIVATIVES AND THEIR HETEROCYCLIC ANALOGUES” (priority 2008, published 2011).
